Assays:
[1] = target: T1, SOS1 catalytic domain (residues 564-1049) (Homo sapiens, UniProt Q07889); assay: Mode of Action Assay: inhibition of SOS1 nucleotide exchange activity (SOS1 TR-FRET IC50 Assay)
T1 sequence (Q07889 564-1049): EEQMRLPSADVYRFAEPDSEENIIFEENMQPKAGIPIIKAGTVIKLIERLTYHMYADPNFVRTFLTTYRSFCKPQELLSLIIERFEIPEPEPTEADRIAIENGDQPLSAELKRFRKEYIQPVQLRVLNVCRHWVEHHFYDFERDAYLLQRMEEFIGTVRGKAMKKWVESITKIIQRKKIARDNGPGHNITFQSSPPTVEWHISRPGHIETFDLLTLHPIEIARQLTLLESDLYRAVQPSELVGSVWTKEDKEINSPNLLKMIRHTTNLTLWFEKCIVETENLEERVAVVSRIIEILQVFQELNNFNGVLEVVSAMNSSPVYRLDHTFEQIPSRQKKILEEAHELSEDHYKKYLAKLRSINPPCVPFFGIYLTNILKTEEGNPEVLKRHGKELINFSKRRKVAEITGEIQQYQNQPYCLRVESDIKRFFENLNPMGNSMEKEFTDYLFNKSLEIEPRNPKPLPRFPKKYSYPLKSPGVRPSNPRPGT

[2] = target: T1, SOS1 catalytic domain (residues 564-1049); assay: Potency Assay: binding affinity to SOS1 using Surface Plasmon Resonance (SPR); set-up: SOS1 catalytic domain (residues 564-1049) immobilized on a sensor chip; conditions: immobilized SOS1 catalytic domain (residues 564-1049), read-out: SOS1 SPR Equilibrium Kd
Procedure, shortened: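 Kd was obtained by plotting binding response, taken just before association ended, versus compound concentration on a Biacore 8K. Compounds flowed at 50 μL/min over streptavidin-captured avi-SOS1 catalytic domain (~6000 RU), followed by buffer dissociation; HEPES 0.01 M/NaCl 0.15 M/0.05% P20 buffer, double-referenced.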

[3] = test system: PC-9 cells (EGFR Ex19Del); assay: Potency Assay: pERK (SOS1 pERK IC50 Assay, AlphaLISA SureFire Ultra p-ERK1/2); format: cell-based; conditions: Homo sapiens; PC-9 cells (EGFR Ex19Del), 1 hour incubation, AlphaLISA p-ERK1/2; read-out: SOS1 pERK IC50
Procedure, shortened: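 Cellular pERK1/2 by AlphaLISA SureFire Ultra after 1 h compound exposure (37° C., highest concentration 10 μM, 3-fold steps, duplicates) of EGFR Ex19Del PC-9 cells seeded the day before. A 4-parameter fit of signal versus log concentration gives IC50.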

| SMILES | IC50 [1] [µM] | Kd [2] [µM] | IC50 [3] [µM] |
| --- | --- | --- | --- |
| C[C@@H](Nc1nc(Cl)nc2c1CN(C(=O)C1CNCCOC1)C2)c1cccc(C(F)F)c1F (stereo partly drawn) [Example 293] | < 1 | < 0.4 | < 1 |
| Cc1c(C(C)Nc2nc(Cl)nc3c2CN(C(=O)N2CCOCC2)C3)cccc1C(F)(F)CO (stereo not drawn) [Example 507, 2-[3-(1-{[2-chloro-6-(morpholine-4-carbonyl)-5H,6H,7H-pyrrolo[3,4-d]pyrimidin-4-yl]amino}ethyl)-2-methylphenyl]-2,2-difluoroethan-1-ol] | < 1 | < 0.4 | > 1 |
| C[C@@H](Nc1nc(Cl)nc2c1CN(C(=O)N1CCNCC1)C2)c1cccc(C(F)F)c1F [Example 407] | < 1 | < 0.4 | < 1 |
| COC1(C(=O)N2Cc3nc(C)nc(N[C@H](C)c4cccc(C(F)(F)CO)c4)c3C2)CCOCC1 [Example 239] | < 1 | < 0.4 | > 1 |
| C[C@@H](Nc1nc(Cl)nc2c1CN(C(=O)C1(F)CNC1)C2)c1cccc(C(F)F)c1F [Example 282] | < 1 | < 0.4 | < 1 |
| C[C@@H](Nc1nc(Cl)nc2c1CN(C(=O)N1CCOCC1)C2)c1cccc(C(F)F)c1F [Example 537] | < 1 | < 0.4 | < 1 |
| CC(=O)N1CCN(C(=O)N2Cc3nc(Cl)nc(N[C@H](C)c4cccc(C(F)F)c4F)c3C2)CC1 [Example 394] | < 1 | < 0.4 | < 1 |
| C[C@@H](Nc1nc(Cl)nc2c1CN(C(=O)N1CCOc3ncccc31)C2)c1cccc(C(F)(F)F)c1 [Example 366] | < 1 | < 0.4 | < 1 |
| COC1CC(N)(C(=O)N2Cc3nc(Cl)nc(N[C@H](C)c4cccc(C(F)F)c4F)c3C2)C1 (stereo partly drawn) [Example 289] | < 1 | < 0.4 | < 1 |
| C[C@@H](Nc1nc(Cl)nc2c1CN(C(=O)N1CC3CNCC(C1)O3)C2)c1cccc(C(F)F)c1F [Example 398] | < 1 | < 0.4 | > 1 |
| COC1(C(=O)N2Cc3nc(Cl)nc(N[C@H](C)c4cccc(C(F)F)c4F)c3C2)CCN(CC(F)(F)F)CC1 [Example 344] | < 1 | < 0.4 | < 1 |
| C[C@@H](Nc1nc(Cl)nc2c1CN(C(=O)C1CN(C3COC3)C1)C2)c1cccc(C(F)F)c1F [Example 339] | < 1 | < 0.4 | < 1 |
| C[C@@H](Nc1nc(Cl)nc2c1CN(C(=O)N1CC3CCC(C1)N3C1COC1)C2)c1cccc(C(F)F)c1F [Example 423] | < 1 | < 0.4 | < 1 |
| C[C@@H](Nc1nc(Cl)nc2c1CN(C(=O)C1(C)CCN(C3COC3)C1)C2)c1cccc(C(F)F)c1F (stereo partly drawn) [Example 341] | < 1 | < 0.4 | < 1 |
| C[C@@H](Nc1nc(Cl)nc2c1CN(C(=O)N1CCNCC(F)C1)C2)c1cccc(C(F)F)c1F (stereo partly drawn) [Example 404] | < 1 | < 0.4 | < 1 |
| CNC1(C(=O)N2Cc3nc(Cl)nc(N[C@H](C)c4cccc(C(F)F)c4F)c3C2)CCOC1 (stereo partly drawn) [Example 334] | < 1 | < 0.4 | < 1 |
| C[C@@H](Nc1nc(Cl)nc2c1CN(C(=O)CC1COCCN1)C2)c1cccc(C(F)F)c1F (stereo partly drawn) [Example 291] | < 1 | > 0.4 | < 1 |
| C[C@@H](Nc1nc(Cl)nc2c1CN(C(=O)C13CCN(CC1)C3)C2)c1cccc(C(F)F)c1F [Example 312] | < 1 | < 0.4 | < 1 |
| C[C@@H](Nc1nc(Cl)nc2c1CN(C(=O)[C@@H]1COCCN1C)C2)c1cccc(C(F)F)c1F [Example 321] | < 1 | < 0.4 | < 1 |
| C[C@@H](Nc1nc(Cl)nc2c1CN(C(=O)N1CCNC(C(F)(F)F)C1)C2)c1cccc(C(F)(F)F)c1 (stereo partly drawn) [Example 363] | < 1 | < 0.4 | < 1 |
| C[C@@H](Nc1nc(Cl)nc2c1CN(C(=O)C1(C#N)CCN(C)CC1)C2)c1cccc(C(F)F)c1F [Example 299] | < 1 | < 0.4 | < 1 |
| COC1(C(=O)N2Cc3nc(Cl)nc(N[C@H](C)c4cccc(C(F)F)c4F)c3C2)CN(C2COC2)C1 [Example 340] | < 1 | < 0.4 | < 1 |
| C[C@@H](Nc1nc(Cl)nc2c1CN(C(=O)N1CCOCC1)C2)c1cccc(CF)c1F [Example 527, 2-chloro-N-[(1R)-1-[2-fluoro-3-(fluoromethyl)phenyl]ethyl]-6-(morpholine-4-carbonyl)-5H,6H,7H-pyrrolo[3,4-d]pyrimidin-4-amine] | < 1 | < 0.4 | > 1 |
| C[C@@H](Nc1nc(Cl)nc2c1CN(C(=O)N1CC3CCC1CN3)C2)c1cccc(C(F)F)c1F (stereo partly drawn) [Example 384] | < 1 | < 0.4 | < 1 |
| C[C@@H](Nc1nc(Cl)nc2c1CN(C(=O)C1CNCCO1)C2)c1cccc(C(F)F)c1F (stereo partly drawn) [Example 288] | < 1 | < 0.4 | < 1 |
| C[C@@H](Nc1nc(Cl)nc2c1CN(C(=O)[C@@H]1COCCN1)C2)c1cccc(C(F)(F)F)c1 [Example 275] | < 1 | > 0.4 | > 1 |

Further lines, results first:

| IC50 [1] [µM] | Kd [2] [µM] | IC50 [3] [µM] | SMILES |
| --- | --- | --- | --- |
| < 1 | < 0.4 | < 1 | CNc1nc2c(c(N[C@H](C)c3cc(N)cc(C(F)(F)F)c3)n1)CN(C(=O)N1CCOCC1)C2 [Example 125, N4-[(1R)-1-[3-amino-5-(trifluoro-methyl)phenyl]ethyl]-N2-methyl-6-(morpholine-4-carbonyl)-5H,6H,7H-pyrrolo[3,4-d]pyrimidine-2,4-diamine] |
| > 1 | > 0.4 | > 1 | C[C@@H](Nc1nc(Cl)nc2c1CN(C(=O)c1ncccn1)CC2)c1cc(N)cc(C(F)(F)F)c1 [Example 236] |
| > 1 | > 0.4 | > 1 | CC(Nc1nc(Cl)nc2c1CN(C(=O)N1CCOCC1)C2)c1cc(O)cc(C(F)(F)F)c1 (stereo not drawn) [Example 40, [2-chloro-4-[1-[3-hydroxy-5-(trifluoromethyl)phenyl]ethylamino]-5,7-dihydropyrrolo[3,4-d]pyrimidin-6-yl]-morpholino-methanone] |
| < 1 | < 0.4 | < 1 | C[C@@H](Nc1nc(Cl)nc2c1CN(S(=O)(=O)N1CCNCC1)CC2)c1cc(N)cc(C(F)(F)F)c1 [Example 183] |
| > 1 | > 0.4 | < 1 | C[C@@H](Nc1nc(Cl)nc2c1CN(C(=O)c1cccc(Cl)n1)C2)c1cc(N)cc(C(F)(F)F)c1 [Example 87] |
| > 1 | > 0.4 | < 1 | C[C@@H](Nc1nc(Cl)nc2c1CN(C(=O)c1ncccn1)C2)c1cc(N)cc(C(F)(F)F)c1 [Example 70] |
| < 1 | < 0.4 | < 1 | C[C@@H](Nc1nc(Cl)nc2c1CN(C(=O)C1(C#N)CCOCC1)C2)c1cc(N)cc(C(F)(F)F)c1 [Example 255] |
| < 1 | > 0.4 | < 1 | C[C@@H](Nc1nc(Cl)nc2c1CN(C(=O)c1ccccn1)C2)c1cc(N)cc(C(F)(F)F)c1 [Example 65] |
| > 1 | < 0.4 | > 1 | C[C@@H](Nc1nc(Cl)nc2c1CN(C(=O)C13CC(O)(C1)C3)CC2)c1cc(N)cc(C(F)(F)F)c1 [Example 193] |
| > 1 | > 0.4 | > 1 | C[C@@H](Nc1nc(Cl)nc2c1CN(C(=O)c1cnccn1)CC2)c1cc(N)cc(C(F)(F)F)c1 [Example 246] |
| < 1 | < 0.4 | < 1 | C[C@@H](Nc1nc(Cl)nc2c1CN(C(=O)c1ncccc1C(F)(F)F)C2)c1cc(N)cc(C(F)(F)F)c1 [Example 86] |
| < 1 | < 0.4 | < 1 | COC1(C(=O)N2Cc3nc(Cl)nc(N[C@H](C)c4cccc(C(F)(F)F)c4)c3C2)CCOCC1 [Example 227] |
| < 1 | < 0.4 | < 1 | C[C@@H](Nc1nc(Cl)nc2c1CN(S(=O)(=O)C1CCOCC1)CC2)c1cc(N)cc(C(F)(F)F)c1 [Example 455] |
| < 1 | > 0.4 | > 1 | C[C@@H](Nc1nc(Cl)nc2c1CN(C(=O)c1cccnn1)CC2)c1cc(N)cc(C(F)(F)F)c1 [Example 235] |
